Here are results for 57 compounds from patent US10442791B2, “DNA-PK inhibitors” (Vertex Pharmaceuticals Incorporated, priority 2012, dated 2019).

Some results are limits rather than exact numbers.

This assay has as its target DNA-PK (Homo sapiens, UniProt P78527). The assay can be described thus: DNA-PK inhibition assay (radiometric 33P-ATP kinase assay). The assay is classed as biochemical. Conditions: 100 μM ATP; competitive tight-binding fit. As for the experimental part:
Compounds were screened for their ability to inhibit DNA-PK kinase using a standard radiometric assay. Briefly, in this kinase assay the transfer of the terminal ^33P-phosphate in ^33P-ATP to a peptide substrate is interrogated. The assay was carried out in 384-well plates to a final volume of 50 μL per well containing approximately 6 nM DNA-PK, 50 mM HEPES (pH 7.5), 10 mM MgCl2, 25 mM NaCl, 0.01% BSA, 1 mM DTT, 10 μg/mL sheared double-stranded DNA (obtained from Sigma), 0.8 mg/mL DNA-PK peptide ([…] obtained from American Peptide), and 100 μM ATP. Accordingly, compounds of the invention were dissolved in DMSO to make 10 mM initial stock solutions. Serial dilutions in DMSO were then made to obtain the final solutions for the assay. A 0.75 μL aliquot of DMSO or inhibitor in DMSO was added to each well, followed by the addition of ATP substrate solution containing ^33P-ATP (obtained from Perkin Elmer). The reaction was started by the addition of DNA-PK, peptide and ds-DNA. After 45 min. the reaction was quenched with 25 μL of 5% phosphoric acid. The reaction mixture was transferred to MultiScreen HTS 384-well PH plates (obtained from Millipore), allowed to bind for one hour, and washed three times with 1% phosphoric acid. Following the addition of 50 μL of Ultima Gold™ high efficiency scintillant (obtained from Perkin Elmer), the samples were counted in a Packard TopCount NXT Microplate Scintillation and Luminescence Counter (Packard BioScience). The Ki values were calculated using Microsoft Excel Solver macros to fit the data to the kinetic model for competitive tight-binding inhibition.
Turning to `COc1ccccc1[C@H](C)CNc1cc(-c2ccc(NCC(O)CO)nc2)ncn1` (single isomer, unassigned) [Compound 200], the Ki (in general, the equilibrium dissociation constant of an inhibitor or competing ligand from its target) is less than 0.03 µM.

Compound `COc1ccccc1[C@H](C)CNc1cc(-c2ccnc(N[C@@H](C)CO)c2)ncn1` (single isomer, unassigned) [Compound 213] yielded a Ki of less than 0.03 µM.

`CNC(=O)c1ccc([C@H](C)CNc2cc(-c3ccc(NC(C)COC)nc3)ncn2)c(OC)c1` (single isomer, unassigned) [Compound 394]: the Ki is less than 0.03 µM.

Compound `Cc1ccc(-c2cc(NC[C@@H](C)c3ccnc4c3OCCO4)ncn2)cn1` (single isomer, unassigned) [Compound 443] gave an inhibitory constant (Ki) of less than 0.03 µM.

Turning to `CNC(=O)c1ccnc2c([C@H](C)CNc3cc(-c4cnc5c(c4)C(C)OC5)ncn3)cccc12` (single isomer, unassigned) [Compound 1012], the Ki is less than 0.03 µM.

Turning to `CNC(=O)c1ccnc2c([C@H](C)CNc3cc(-c4ccnc(C(C)OC)c4)ncn3)cccc12` (single isomer, unassigned) [Compound 1039], the Ki was less than 0.03 µM.

Compound `COc1ccc(CCNc2cc(-c3ccc4ncccc4c3)ncn2)c(OC)c1` [Compound 28] came in with a Ki of less than 0.03 µM.

`COc1ccccc1[C@H](C)CNc1cc(-c2cnc3[nH]ncc3c2)ncn1` [Compound 150]: the inhibitory constant (Ki) was less than 0.03 µM.

`Cc1ccc(-c2cc(NCC(C)c3cncc4c3OCC4)ncn2)cn1` (stereo not drawn) [Compound 418] registered an inhibition constant Ki of less than 0.03 µM.

Compound `CNC(=O)c1ccnc2c([C@H](C)CNc3cc(-c4cnc(OC5CCN(C(=O)OC(C)(C)C)C5)nc4)ncn3)cccc12` (stereo partly drawn) [Compound 746] came in with a Ki of less than 0.03 µM.

Compound `CNC(=O)c1ccnc2c([C@H](C)CNc3cc(-c4cnc(OCC(F)(F)F)nc4)ncn3)cccc12` [Compound 769] came in with an inhibitory constant (Ki) of less than 0.03 µM.

For `CNC(=O)c1ccnc2c([C@H](C)CNc3cc(-c4cnc(N5CCN(CC(F)(F)F)CC5)nc4)ncn3)cccc12` [Compound 781], the inhibitory constant (Ki) is less than 0.03 µM.

With `CNC(=O)c1ccnc2c([C@H](C)CNc3cc(-c4cc(C)nc(C)c4)ncn3)cccc12` [Compound 820], the Ki was less than 0.03 µM.

Take `CNC(=O)c1c(F)cnc2c([C@H](C)CNc3cc(-c4cnc(C(C)C)nc4)ncn3)cccc12` [Compound 859]: the Ki is less than 0.03 µM.

For the compound `CNC(=O)c1ccnc2c([C@H](C)CNc3cc(-c4cnc(OC)c(CO)c4)ncn3)ccc(F)c12` [Compound 883], the inhibitory constant (Ki) was less than 0.03 µM.

With `CCN(CC)c1cc(-c2cc(NC[C@@H](C)c3cccc4c(C(=O)NC)ccnc34)ncn2)ccn1` [Compound 892], the Ki is less than 0.03 µM.

For `CNC(=O)c1cc(C(F)(F)F)nc2c([C@H](C)CNc3cc(-c4ccc(C)nc4)ncn3)cccc12` [Compound 985], the Ki is less than 0.03 µM.

`CNC(=O)c1ccnc2c([C@H](C)CNc3cc(-c4cnc5c(c4)COC5(C)C)ncn3)cccc12` [Compound 986] had a Ki of less than 0.03 µM.

With `CNC(=O)c1c(F)cnc2c([C@H](C)CNc3cc(-c4cnc5c(c4)COC5(C)C)ncn3)cccc12` [Compound 987], the Ki was less than 0.03 µM.

In turn, `CNC(=O)c1ccnc2c([C@H](C)CNc3cc(-c4ccc(CC5CCN(C)CC5)nc4)ncn3)cccc12` [Compound 989] yielded a Ki of less than 0.03 µM.

`CNC(=O)c1c(F)cnc2c([C@H](C)CNc3cc(-c4ccc(CC5CCN(C)CC5)nc4)ncn3)cccc12` [Compound 991] showed a Ki of less than 0.03 µM.

For the compound `CNC(=O)c1ccnc2c([C@H](C)CNc3cc(-c4ccc(CC5CCN(C)CC5)nc4)ncn3)ccc(F)c12` [Compound 992], the Ki was less than 0.03 µM.

With `Cc1ccc(-c2cc(NC[C@@H](C)c3cccc4c3ncc3[nH][nH]c(=O)c34)ncn2)cn1` [Compound 993], the inhibition constant Ki was less than 0.03 µM.

`Cc1ccc(-c2cc(NC[C@@H](C)c3cccc4c3ncc3[nH]n(C)c(=O)c34)ncn2)cn1` [Compound 994] showed an inhibitory constant (Ki) of less than 0.03 µM.

In the case of `Cc1ccc(-c2cc(NC[C@@H](C)c3cccc4c3ncc3c4c(=O)[nH]n3C)ncn2)cn1` [Compound 995], the Ki was less than 0.03 µM.

The compound `CNC(=O)c1ccnc2c([C@H](C)CNc3cc(-c4cnc(OC(C)(C)C)nc4)ncn3)cccc12` [Compound 996] had an inhibitory constant (Ki) of less than 0.03 µM.

Turning to `CNC(=O)c1c(F)cnc2c([C@H](C)CNc3cc(-c4cnc(OC(C)(C)C)nc4)ncn3)cccc12` [Compound 997], the inhibition constant (Ki) is less than 0.03 µM.

Compound `CNC(=O)c1ccnc2c([C@H](C)CNc3cc(-c4cnc(OC(C)(C)C)nc4)ncn3)ccc(F)c12` [Compound 998] registered a Ki of less than 0.03 µM.

In the case of `CNC(=O)c1c(F)cnc2c([C@H](C)CNc3cc(-c4cnc(COC)nc4)ncn3)cccc12` [Compound 999], the Ki is less than 0.03 µM.

`CNC(=O)c1ccnc2c([C@H](C)CNc3cc(-c4cnc(COC)nc4)ncn3)ccc(F)c12` [Compound 1000] had a Ki of less than 0.03 µM.

In turn, `CNC(=O)c1ccnc2c([C@H](C)CNc3cc(-c4cnc(CC5CCN(C)CC5)nc4)ncn3)cccc12` [Compound 1001] came in with an inhibition constant Ki of less than 0.03 µM.

`CNC(=O)c1c(F)cnc2c([C@H](C)CNc3cc(-c4cnc(CC5CCN(C)CC5)nc4)ncn3)cccc12` [Compound 1002] gave an inhibitory constant (Ki) of less than 0.03 µM.

Compound `[2H]C([2H])([2H])C([2H])([2H])c1ncc(-c2cc(NC[C@@H](C)c3cccc4c(C(=O)NC)c(F)cnc34)ncn2)cn1` [Compound 1004] displayed a Ki of less than 0.03 µM.

In turn, `CNC(=O)c1ncnc2c([C@H](C)CNc3cc(-c4ccc(OC)nc4)ncn3)cccc12` [Compound 1005] yielded a Ki of less than 0.03 µM.

On to `CNC(=O)c1ncnc2c([C@H](C)CNc3cc(-c4ccc(F)nc4)ncn3)cccc12` [Compound 1006], for which the Ki is less than 0.03 µM.

`CNC(=O)c1ccnc2c([C@H](C)CNc3cc(-c4ccc(CC5CCN(C(C)=O)CC5)nc4)ncn3)cccc12` [Compound 1007] yielded a Ki of less than 0.03 µM.

For `CNC(=O)c1c(F)cnc2c([C@H](C)CNc3cc(-c4ccc(CC5CCN(C(C)=O)CC5)nc4)ncn3)cccc12` [Compound 1008], the inhibition constant Ki is less than 0.03 µM.

`CNC(=O)c1ncnc2c([C@H](C)CNc3cc(-c4cnc(OC)nc4)ncn3)cccc12` [Compound 1009] returned a Ki of less than 0.03 µM.

`CNC(=O)c1ncnc2c([C@H](C)CNc3cc(-c4ccc(C#N)cc4)ncn3)cccc12` [Compound 1010] gave a Ki of less than 0.03 µM.

Take `CCOc1ncc(-c2cc(NC[C@@H](C)c3cccc4c(C(=O)NC)ncnc34)ncn2)cn1` [Compound 1011]: the inhibition constant Ki was less than 0.03 µM.

For the compound `CNC(=O)c1ccnc2c([C@H](C)CNc3cc(-c4cnc(COC(C)C)nc4)ncn3)cccc12` [Compound 1014], the Ki is less than 0.03 µM.

In turn, `CNC(=O)c1c(F)cnc2c([C@H](C)CNc3cc(-c4cnc(COC(C)C)nc4)ncn3)cccc12` [Compound 1015] displayed a Ki of less than 0.03 µM.

As for `CNC(=O)c1ncnc2c([C@H](C)CNc3cc(-c4ccc(C(=O)NCCC#N)nc4)ncn3)cccc12` [Compound 1016], the Ki was less than 0.03 µM.

Consider `CNC(=O)c1ncnc2c([C@H](C)CNc3cc(-c4ccc(C(=O)NCCC#N)cc4)ncn3)cccc12` [Compound 1017], for which the Ki is less than 0.03 µM.

As to `CNC(=O)c1ccnc2c([C@H](C)CNc3cc(-c4ccc(CC5CCN(C(C)=O)CC5)nc4)ncn3)ccc(F)c12` [Compound 1018], the inhibition constant Ki is less than 0.03 µM.

`CNC(=O)c1ccnc2c([C@H](C)CNc3cc(-c4ccc(CC5CCN(CC(F)F)CC5)nc4)ncn3)cccc12` [Compound 1019]: the inhibitory constant (Ki) is less than 0.03 µM.

`CNC(=O)c1ccnc2c([C@H](C)CNc3cc(-c4ccc(CC5CCN(CC(F)F)CC5)nc4)ncn3)ccc(F)c12` [Compound 1020]: the Ki is less than 0.03 µM.

With `CNC(=O)c1c(F)cnc2c([C@H](C)CNc3cc(-c4ccc(CC5CCN(CC(F)(F)F)CC5)nc4)ncn3)cccc12` [Compound 1021], the Ki was less than 0.03 µM.

The compound `CNC(=O)c1ccnc2c([C@H](C)CNc3cc(-c4ccc(CC5CCN(CC(F)(F)F)CC5)nc4)ncn3)ccc(F)c12` [Compound 1022] came in with a Ki of less than 0.03 µM.

Take `CNC(=O)c1ccnc2c([C@H](C)CNc3cc(-c4ccc(CC5CCN(CC(F)(F)F)CC5)nc4)ncn3)cccc12` [Compound 1023]: the Ki is less than 0.03 µM.

As for `[2H]c1nc(C)nc([2H])c1-c1cc(NC[C@@H](C)c2cccc3c(C(N)=O)ccnc23)ncn1` [Compound 1027], the Ki was less than 0.03 µM.

In the case of `CNC(=O)c1ccnc2c([C@H](C)CNc3cc(-c4cnc(NC5CC5)nc4)ncn3)ccc(F)c12` [Compound 1028], the Ki was less than 0.03 µM.

`CNC(=O)c1ccnc2c([C@H](C)CNc3cc(-c4cnc(NC5CC5)nc4)ncn3)cccc12` [Compound 1029] returned an inhibitory constant (Ki) of less than 0.03 µM.

The compound `CCOc1ncc(-c2cc(NC[C@@H](C)c3cccc4c(C(=O)NC)c(F)cnc34)ncn2)cn1` [Compound 1030] showed an inhibition constant Ki of less than 0.03 µM.

`CNC(=O)c1ccnc2c([C@H](C)CNc3cc(-c4cnc(OC)nc4)ncn3)ccc(F)c12` [Compound 1031]: the inhibition constant (Ki) was less than 0.03 µM.

`CNC(=O)c1c(F)cnc2c([C@H](C)CNc3cc(-c4cnc(NC5CC5)nc4)ncn3)cccc12` [Compound 1032] had a Ki of less than 0.03 µM.

In the case of `CNC(=O)c1c(F)cnc2c([C@H](C)CNc3cc(-c4cnc(NCC(F)(F)F)nc4)ncn3)cccc12` [Compound 1033], the inhibition constant Ki is less than 0.03 µM.
